Test results from the NIST ThermoML archive (doi:10.1021/acs.jced.5b00251).
± gives the expanded uncertainty stated by the source.

Test: refractive index (other wavelength) (dimensionless); xn = mol fraction of the nth substance listed
Details: 101 kPa, Liquid, Standard Abbe refractometry

CC(C)Cc1ccccc1 [(2-methylpropyl)benzene] + c1ccc2c(c1)CCCC2
refractive index
Details	x2 = 0.1014	x2 = 0.2024	x2 = 0.3032	x2 = 0.4036	x2 = 0.5038	x2 = 0.6036	x2 = 0.7032	x2 = 0.8024	x2 = 0.9014
293.15 K, Wavelength=436.1 nm	1.50977 ± 0.00078	1.51503 ± 0.0008	1.52078 ± 0.00076	1.52612 ± 0.0008	1.53208 ± 0.00078	1.53797 ± 0.00077	1.54392 ± 0.00078	1.55007 ± 0.00077	1.55611 ± 0.00078
293.15 K, Wavelength=513.9 nm	1.49809 ± 0.001	1.50316 ± 0.00091	1.5087 ± 0.0009	1.51409 ± 0.00089	1.51959 ± 0.00092	1.52525 ± 0.0009	1.53097 ± 0.00091	1.5369 ± 0.00091	1.54273 ± 0.001
293.15 K, Wavelength=589.3 nm	1.49141 ± 0.00079	1.49657 ± 0.00077	1.50199 ± 0.00078	1.50701 ± 0.00084	1.51266 ± 0.00079	1.51821 ± 0.00078	1.52382 ± 0.00078	1.52961 ± 0.00078	1.53531 ± 0.00082
293.15 K, Wavelength=633.2 nm	1.4889 ± 0.00076	1.49381 ± 0.00076	1.49922 ± 0.00077	1.50445 ± 0.00077	1.50978 ± 0.0008	1.51528 ± 0.00074	1.52085 ± 0.00077	1.5266 ± 0.00075	1.53226 ± 0.0008
293.15 K, Wavelength=657.2 nm	1.48749 ± 0.00074	1.49254 ± 0.00076	1.49852 ± 0.00074	1.50384 ± 0.00078	1.50967 ± 0.00071	1.51394 ± 0.00076	1.52005 ± 0.00069	1.52522 ± 0.00076	1.53141 ± 0.00069
298.15 K, Wavelength=436.1 nm	1.50717 ± 0.00078	1.51248 ± 0.00078	1.51824 ± 0.00078	1.52362 ± 0.00078	1.52954 ± 0.00079	1.53551 ± 0.00077	1.54144 ± 0.00078	1.54758 ± 0.00078	1.55354 ± 0.00078
298.15 K, Wavelength=513.9 nm	1.49546 ± 0.00076	1.50075 ± 0.00076	1.50623 ± 0.00076	1.51165 ± 0.00077	1.51711 ± 0.00077	1.52288 ± 0.00076	1.5286 ± 0.00076	1.53447 ± 0.00076	1.54022 ± 0.00076
298.15 K, Wavelength=589.3 nm	1.48927 ± 0.00074	1.49432 ± 0.00076	1.49956 ± 0.00075	1.50446 ± 0.00075	1.51023 ± 0.00075	1.51588 ± 0.00074	1.52148 ± 0.00075	1.52722 ± 0.00075	1.53287 ± 0.00075
298.15 K, Wavelength=633.2 nm	1.48633 ± 0.00075	1.49149 ± 0.00075	1.49681 ± 0.00075	1.50206 ± 0.00077	1.50737 ± 0.00075	1.51298 ± 0.00075	1.51853 ± 0.00075	1.52424 ± 0.00074	1.52981 ± 0.00074
298.15 K, Wavelength=657.2 nm	1.48512 ± 0.00074	1.49029 ± 0.00073	1.49594 ± 0.00077	1.50135 ± 0.00076	1.50706 ± 0.00076	1.51205 ± 0.0007	1.51776 ± 0.00074	1.52302 ± 0.00074	1.52941 ± 0.00074
303.15 K, Wavelength=436.1 nm	1.50468 ± 0.00078	1.50986 ± 0.00076	1.51569 ± 0.00079	1.52094 ± 0.00076	1.52674 ± 0.0008	1.53306 ± 0.00078	1.53885 ± 0.00078	1.54503 ± 0.00078	1.55109 ± 0.00079
303.15 K, Wavelength=513.9 nm	1.49315 ± 0.00076	1.49828 ± 0.00075	1.50376 ± 0.00078	1.50899 ± 0.00076	1.5146 ± 0.00076	1.52033 ± 0.00078	1.52606 ± 0.00076	1.532 ± 0.00076	1.53785 ± 0.00078
303.15 K, Wavelength=589.3 nm	1.48673 ± 0.00076	1.49163 ± 0.00075	1.49715 ± 0.00076	1.5021 ± 0.00075	1.50776 ± 0.00077	1.51352 ± 0.00075	1.51899 ± 0.00075	1.52478 ± 0.00075	1.53052 ± 0.00075
303.15 K, Wavelength=633.2 nm	1.48406 ± 0.00075	1.48893 ± 0.00075	1.49439 ± 0.00076	1.49932 ± 0.00076	1.50493 ± 0.00077	1.51036 ± 0.00075	1.51604 ± 0.00075	1.52181 ± 0.00075	1.52748 ± 0.00076
303.15 K, Wavelength=657.2 nm	1.48275 ± 0.00074	1.48792 ± 0.00075	1.49332 ± 0.00076	1.49885 ± 0.00073	1.50461 ± 0.00074	1.50983 ± 0.00073	1.51528 ± 0.00076	1.52043 ± 0.00074	1.52666 ± 0.00075
308.15 K, Wavelength=436.1 nm	1.50202 ± 0.00078	1.50759 ± 0.00077	1.5129 ± 0.00079	1.51879 ± 0.00075	1.52412 ± 0.00079	1.53042 ± 0.00077	1.53639 ± 0.00077	1.5425 ± 0.00077	1.54823 ± 0.0008
308.15 K, Wavelength=513.9 nm	1.49045 ± 0.00076	1.49591 ± 0.00077	1.50103 ± 0.00076	1.50671 ± 0.00076	1.51215 ± 0.00076	1.51765 ± 0.00078	1.52366 ± 0.00076	1.52953 ± 0.00076	1.53505 ± 0.00078
308.15 K, Wavelength=589.3 nm	1.48428 ± 0.00074	1.48939 ± 0.00073	1.49461 ± 0.00076	1.49955 ± 0.00077	1.50515 ± 0.00077	1.51099 ± 0.00076	1.51661 ± 0.00075	1.52237 ± 0.00074	1.52797 ± 0.00076
308.15 K, Wavelength=633.2 nm	1.48142 ± 0.00075	1.48659 ± 0.00075	1.4917 ± 0.00075	1.49701 ± 0.00076	1.50224 ± 0.00078	1.50811 ± 0.00075	1.51368 ± 0.00074	1.51941 ± 0.00074	1.52477 ± 0.00076
308.15 K, Wavelength=657.2 nm	1.48038 ± 0.00074	1.48538 ± 0.00074	1.49085 ± 0.00073	1.49669 ± 0.00073	1.50224 ± 0.00076	1.50738 ± 0.00075	1.51272 ± 0.00076	1.51825 ± 0.00074	1.52447 ± 0.00075
313.15 K, Wavelength=436.1 nm	1.49957 ± 0.00078	1.5048 ± 0.00078	1.51044 ± 0.00077	1.51631 ± 0.00078	1.52152 ± 0.00078	1.52806 ± 0.00078	1.53388 ± 0.00078	1.54002 ± 0.00077	1.54572 ± 0.00079
313.15 K, Wavelength=513.9 nm	1.48816 ± 0.00075	1.49321 ± 0.00077	1.49885 ± 0.00076	1.50413 ± 0.00078	1.50976 ± 0.00074	1.51512 ± 0.00074	1.52123 ± 0.00075	1.52715 ± 0.00076	1.53263 ± 0.00077
313.15 K, Wavelength=589.3 nm	1.48198 ± 0.00074	1.48705 ± 0.00075	1.49215 ± 0.00076	1.49702 ± 0.00076	1.50259 ± 0.00078	1.50845 ± 0.00075	1.51422 ± 0.00075	1.52003 ± 0.00075	1.52558 ± 0.00077
313.15 K, Wavelength=633.2 nm	1.47918 ± 0.00075	1.48409 ± 0.00074	1.48957 ± 0.00074	1.49422 ± 0.00077	1.49959 ± 0.00076	1.50542 ± 0.00075	1.51132 ± 0.00075	1.51708 ± 0.00074	1.52248 ± 0.00075
313.15 K, Wavelength=657.2 nm	1.47807 ± 0.00074	1.48312 ± 0.00074	1.48866 ± 0.00075	1.49418 ± 0.00075	1.49947 ± 0.00078	1.50491 ± 0.00077	1.51025 ± 0.00077	1.51573 ± 0.00072	1.52168 ± 0.00079
318.15 K, Wavelength=436.1 nm	1.49678 ± 0.00081	1.50247 ± 0.00076	1.50783 ± 0.00076	1.51372 ± 0.00081	1.51897 ± 0.00073	1.52533 ± 0.00082	1.53125 ± 0.00077	1.53748 ± 0.00081	1.54301 ± 0.0008
318.15 K, Wavelength=513.9 nm	1.48564 ± 0.00061	1.49078 ± 0.00064	1.49611 ± 0.00068	1.50143 ± 0.00066	1.50751 ± 0.00067	1.51299 ± 0.00061	1.51892 ± 0.00064	1.52466 ± 0.00065	1.53007 ± 0.0006
318.15 K, Wavelength=589.3 nm	1.47955 ± 0.00072	1.48455 ± 0.00073	1.48962 ± 0.00073	1.49455 ± 0.00071	1.49987 ± 0.00071	1.50614 ± 0.00072	1.51175 ± 0.00071	1.51758 ± 0.00073	1.52287 ± 0.00072
318.15 K, Wavelength=633.2 nm	1.47656 ± 0.00074	1.48179 ± 0.00073	1.4869 ± 0.00077	1.49181 ± 0.00069	1.49721 ± 0.00069	1.50325 ± 0.00071	1.50887 ± 0.00074	1.51464 ± 0.00074	1.51989 ± 0.00073
318.15 K, Wavelength=657.2 nm	1.47562 ± 0.00075	1.48056 ± 0.00074	1.48595 ± 0.00076	1.49181 ± 0.00077	1.49685 ± 0.00076	1.50222 ± 0.00078	1.50758 ± 0.00074	1.51388 ± 0.00072	1.51897 ± 0.00078
